This note sets out measurements from patent US20200261421A1, “HETEROCYCLIC COMPOUNDS AS HIV PROTEASE INHIBITORS” (Merck Sharp & Dohme Corp., priority 2016, published 2020).

pIC50: −log10 of the molar value.

This assay addresses T1, wild-type HIV-1 protease (Human immunodeficiency virus type 1 group M subtype B, UniProt P04585).
T1 construct: Escherichia coli expressed wild-type HIV-1 protease protein; made in house; host or cells: Escherichia coli
Description: Assay for Inhibition of Microbial Expressed HIV Protease. The format is biochemical. As to conditions: Escherichia coli expressed wild-type HIV-1 protease, peptide substrate cleavage; mean of at least two independent experiments. In outline:
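E. coli-expressed wild-type HIV-1 protease (20 pM) was preincubated with inhibitor for 30 min at room temperature in 50 mM sodium acetate pH 5.5, 100 mM NaCl, 0.1% BSA. It was then reacted with 400 μM peptide substrate for 1 h at 30 °C. Cleavage product was quantified by LC-MS/MS, and IC50 is the mean of at least two experiments.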

For orientation: pIC50 means −log10 of the IC50, conventionally taken in molar units. A high value points to a small IC50. Consider `CC(C)CCC1(c2ccccc2)NC(=N)N(Cc2cc(C(=O)N(C)Cc3ccc(C#N)cc3)ccn2)C1=O` (centres unmarked) [Example 88, N-(4-cyanobenzyl)-2-{[2-imino-4-(3-methylbutyl)-5-oxo-4-phenylimidazolidin-1-yl]methyl}-N-methylpyridine-4-carboxamide], for which the pIC50 is 7.77.
Regarding `CN(Cc1ccc(Cl)cc1)C(=O)c1ccnc(CN2C(=N)NC(c3ccc(F)cc3)(c3ccc(F)cc3)C2=O)c1` [Example 89, 2-{[4,4-bis(4-fluorophenyl)-2-imino-5-oxoimidazolidin-1-yl]methyl}-N-(4-chlorobenzyl)-N-methylpyridine-4-carboxamide], the pIC50 is 7.72.
In the case of `CN(Cc1ccc(F)cc1)C(=O)c1ccnc(CN2C(=N)NC(c3ccccc3)(c3ccccc3)C2=O)c1` [Example 90, N-(4-fluorobenzyl)-2-[(2-imino-5-oxo-4,4-diphenylimidazolidin-1-yl)methyl]-N-methylpyridine-4-carboxamide] it was 7.61; in that of `CC(C)CC1(c2ccccc2)NC(=N)N(Cc2cc(C(=O)N(C)Cc3ccc(Cl)cc3)ccn2)C1=O` (centres unmarked) [Example 91, N-(4-chlorobenzyl)-2-{[2-imino-4-(2-methylpropyl)-5-oxo-4-phenylimidazolidin-1-yl]methyl}-N-methylpyridine-4-carboxamide], 7.47.
For `CN(Cc1ccccc1S(C)(=O)=O)C(=O)c1ccnc(CN2C(=N)NC(c3ccccc3)(c3ccccc3)C2=O)c1` [Example 92, 2-[(2-imino-5-oxo-4,4-diphenylimidazolidin-1-yl)methyl]-N-methyl-N-[2-(methylsulfonyl)benzyl]pyridine-4-carboxamide], the pIC50 is 7.28. This pIC50 and that of the compound before are within 0.2 log units of each other.
Under `Cc1cc(CN2C(=N)NC(c3ccc(F)cc3)(c3ccc(F)cc3)C2=O)cc(C(=O)N(C)Cc2ccc(F)cc2)n1` [Example 93, 4-{[4,4-bis(4-fluorophenyl)-2-imino-5-oxoimidazolidin-1-yl]methyl}-N-(4-fluorobenzyl)-N,6-dimethylpyridine-2-carboxamide] stands 7.49; under `CN(Cc1ccc(F)cc1)C(=O)c1csc(CN2C(=N)NC(c3ccccc3)(c3ccccc3)C2=O)c1` [Example 94, N-(4-fluorobenzyl)-5-[(2-imino-5-oxo-4,4-diphenylimidazolidin-1-yl)methyl]-N-methylthiophene-3-carboxamide], 8.05.
Compound `CN(Cc1ccc(F)cc1)C(=O)c1csc(CN2C(=N)NC(c3ccccc3)(c3ccccc3)C2=O)n1` [Example 95, N-(4-fluorobenzyl)-2-[(2-imino-5-oxo-4,4-diphenylimidazolidin-1-yl)methyl]-N-methyl-1,3-thiazole-4-carboxamide] gave a pIC50 of 7.52.
